For 5 compounds, IC50 results are on record in patent EP0362645B1, “Use of pteridines in the prevention of the primary and secondary resistance during chemotherapy, and medicaments containing these compounds” (Dr. Karl Thomae GmbH, priority 1988, dated 1990).

Each structure is given as a SMILES string. Where only a bound is given, the exact number is not on record here.

In the test the test system is adriamycinresistente S 180 Maus Sarcomazellen. The experiment in a line: MTT proliferation/cytotoxicity assay on adriamycin-resistant S 180 sarcoma cells, with or without adriamycin (sensitisation). Format: cell-based. To be noted: S-180, 144 h, six days culture, MTT readout. The source says: Beispielsweise wurde die Sensibilisierung durch die Verbindungen A = 4-[N-(2-Hydroxy-2-methyl-propyl)-ethanolamino]-2,7-bis-(2,6-dimethyl-morpholino)-6-phenyl-pteridin, B = 4-Ethyl-ethanolamino-2,7-bis(2,6-dimethyl-morpholino)-6-phenyl-pteridin, C = 4-Ethanol-isopropanolamino-2,7-bis(2,6-dimethyl-morpholino)-6-phenyl-pteridin, D = 4-Diethanolamino-2,7-bis(2,6-dimethyl-morpholino)-6-phenyl-pteridin und E = 4-[N-(2-Hydroxy-2-methyl-propyl)-ethanolamino]-2,7-bis(cis-2,6-dimethyl-morpholino)-6-phenyl-pteridin am Beispiel von gegen Adriamycin resistenten Zellen wie folgt geprüft: Proliferierende, adriamycinresistente S 180 Maus Sarcomazellen werden in Anwesenheit unterschiedlicher Konzentrationen Testsubstanzen für sechs Tage kultiviert. Zytotoxisch oder zytostatisch wirkende Konzentrationen der Testsubstanzen werden durch vermindertes Zellwachstum oder durch das Absterben der Zellen angezeigt. Endpunkt des Assays ist die Zahl der lebenden Zellen pro Kultur, die indirekt ermittelt wird, indem die Eigenschaft vitaler Zellen, den Farbstoff MTT [= 3-(4,5-Dimethylthiazol-2-yl)-2,5-diphenyltetrazoliumbromid] zum farbigen Formazan zu reduzieren, ausgenützt wird. Als IC50 wird die Konzentration einer Testsubstanz bezeichnet, welche die Zahl der vitalen Zellen pro Kulturgefäß auf 50 % der unbehandelten Kontrolle reduziert. Die Testsubstanzen werden sowohl in Abwesenheit von Adriamycin als auch in Anwesenheit einer unter Kulturbedingungen nicht proliferationshemmend wirkenden Menge Adriamycin getestet. Pro Testsubstanz erhält man daher zwei IC50-Werte, einen in Anwesenheit (IC50 ADR), den anderen in Abwesenheit (IC50) von Adriamycin. Die Differenz der Zehnerlogarithmen der beiden IC50-Werte: Δ = 1gIC50-1gIC50 ADR ist ein Maß für die Erhöhung der Zytotoxizität der Testsubstanz durch Adriamycin.
Exponentiell wachsende, adriamycinresistente oder adriamycinsensitive S 180-Zellen werden in 96-Loch Flachboden-Mikrotiterplatten zu 2000 Zellen pro Loch in 100 »l Wachstumsmedium (RPMI-1640, das 10 % fötales Rinderserum enthält) ausplattiert. Die Kulturplatten werden im Brutschrank bei 37°C, 5 % CO₂ und 100 % relativer Luftfeuchtigkeit inkubiert. Nach 24 Stunden werden pro Loch 50 »l Wachstumsmedium, das unterschiedliche Konzentrationen an Testsubstanz enthält, und 50 »l Wachstumsmedium mit oder ohne Adriamycin hinzugefügt. Im Anschluß an eine weitere sechstägige Kultivierung werden 50 »l Tetrazoliumsalzlösung [5 mg 3-(4,5-Dimethylthiazol-2-yl)-2,5-diphenyltetrazoliumbromid pro ml Phosphat-gepufferter Salinelösung, vor Gebrauch 1:5 (v/v) mit RPMI-1640 verdünnt] in jedes Loch pipettiert. Nach vier Stunden Inkubation wird das Kulturmedium vorsichtig abgesaugt und intrazellulär gebildetes Formazan durch 150 »l Dimethylsulfoxid pro Loch solubilisiert. Die Platten werden kurz geschüttelt und die optische Dichte bei 570 nm mit einem Photometer wie einem Dynatech MR-600-Gerät gemessen. Die Bildung des farbigen Formazans durch Reduktion des Tetrazoliumsalzes ist proportional der Zahl der lebenden Zellen. Die Mittelwerte von Dreifach-Bestimmungen wurden bei der Berechnung der IC50-Werte verwendet (Verdünnungsstufe: 1:2).

The mark [1] stands for this setting: Tabelle 2, Adriamycin 100 ng/ml.

Regarding `C[C@@H]1CN(c2nc(N(CCO)CC(C)(C)O)c3nc(-c4ccccc4)c(N4C[C@@H](C)O[C@@H](C)C4)nc3n2)C[C@H](C)O1` [E, 4-[N-(2-Hydroxy-2-methyl-propyl)-ethanolamino]-2,7-bis(cis-2,6-dimethyl-morpholino)-6-phenyl-pteridin], the IC50 by setting is: (Tabelle 1, Adriamycin 0 ng/ml) 7.5 µg/mL; (Tabelle 1, Adriamycin 25 ng/ml) 0.5 µg/mL; (Tabelle 2, Adriamycin 0 ng/ml) 7.5 µg/mL; under setting [1], 0.1 µg/mL.
As to `CC(O)CN(CCO)c1nc(N2CC(C)OC(C)C2)nc2nc(N3CC(C)OC(C)C3)c(-c3ccccc3)nc12` (centres unmarked) [C, 4-Ethanol-isopropanolamino-2,7-bis(2,6-dimethyl-morpholino)-6-phenyl-pteridin], the IC50 is 12.8 µg/mL (Tabelle 1, Adriamycin 0 ng/ml); 3.77 µg/mL (Tabelle 1, Adriamycin 25 ng/ml); 12.8 µg/mL (Tabelle 2, Adriamycin 0 ng/ml); 0.82 µg/mL under setting [1].
Turning to `CCN(CCO)c1nc(N2CC(C)OC(C)C2)nc2nc(N3CC(C)OC(C)C3)c(-c3ccccc3)nc12` (centres unmarked) [B, 4-Ethyl-ethanolamino-2,7-bis(2,6-dimethyl-morpholino)-6-phenyl-pteridin], the IC50 (Tabelle 1, Adriamycin 0 ng/ml) is more than 31.6 µg/mL; the IC50 (Tabelle 1, Adriamycin 25 ng/ml) was 4.43 µg/mL; the IC50 (Tabelle 2, Adriamycin 0 ng/ml) is more than 31.6 µg/mL; the IC50 under setting [1] was found to be 0.77 µg/mL.
Take `CC1CN(c2nc(N(CCO)CC(C)(C)O)c3nc(-c4ccccc4)c(N4CC(C)OC(C)C4)nc3n2)CC(C)O1` (centres unmarked) [A, 4-[N-(2-Hydroxy-2-methyl-propyl)-ethanolamino]-2,7-bis-(2,6-dimethyl-morpholino)-6-phenyl-pteridin]: the IC50 by setting is: (Tabelle 1, Adriamycin 0 ng/ml) 20.7 µg/mL; (Tabelle 1, Adriamycin 25 ng/ml) 1.49 µg/mL; (Tabelle 2, Adriamycin 0 ng/ml) 20.7 µg/mL; under setting [1], less than 0.5 µg/mL.
For the compound `CC1CN(c2nc(N(CCO)CCO)c3nc(-c4ccccc4)c(N4CC(C)OC(C)C4)nc3n2)CC(C)O1` (centres unmarked) [D, 4-Diethanolamino-2,7-bis(2,6-dimethyl-morpholino)-6-phenyl-pteridin], the IC50 reads like this: (Tabelle 1, Adriamycin 0 ng/ml) 14.4 µg/mL; (Tabelle 1, Adriamycin 25 ng/ml) 5.78 µg/mL; (Tabelle 2, Adriamycin 0 ng/ml) 14.4 µg/mL; under setting [1], 1.57 µg/mL.

The IC50 is the concentration at which inhibition is half-maximal.
